In ChEMBL document CHEMBL1201862, “PubChem BioAssay data set” (2004):
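In this assay, cells in 96-well plates receive the compound at five concentrations for 48 hours. Endpoints are linearly interpolated between the surrounding concentrations. At the GI50, growth is halved.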 Active and inactive are the calls of the source. Rule as the data show it: active = GI50 up to about 1.1 µM and inactive = higher.

What was measured:
Test in all cases: growth of human tumour cells (NCI), 48 h
RPMI-8226 = tested on: RPMI-8226
U-251 = tested on: U-251
CAKI-1 = tested on: CAKI-1
MCF7 = tested on: MCF7
Hs-578T = tested on: Hs-578T
HCT-15 = tested on: HCT-15
EKVX = tested on: EKVX
MDA-MB-435 = tested on: MDA-MB-435
KM12 = tested on: KM12
MDA-N = tested on: MDA-N
K562 = tested on: K562
DU-145 = tested on: DU-145
M14 = tested on: M14
HT-29 = tested on: HT-29
IGROV-1 = tested on: IGROV-1
HCC 2998 = tested on: HCC 2998
RXF 393 = tested on: RXF 393
LOX IMVI = tested on: LOX IMVI
SF-539 = tested on: SF-539
SR = tested on: SR

SMILES | GI50 (RPMI-8226) | GI50 (U-251) | GI50 (CAKI-1) | GI50 (MCF7) | GI50 (Hs-578T) | GI50 (HCT-15) [µM] | GI50 (EKVX) | GI50 (MDA-MB-435) | GI50 (KM12) | GI50 (MDA-N) | GI50 (K562) | GI50 (DU-145) | GI50 (M14) | GI50 (HT-29) | GI50 (IGROV-1) | GI50 (HCC 2998) | GI50 (RXF 393) | GI50 (LOX IMVI) | GI50 (SF-539) | GI50 (SR)
N=C(Cc1ccccc1)NCC(=O)O | > 100 µM (inactive) | > 100 µM (inactive) | > 100 µM (inactive) | > 100 µM (inactive) | > 100 µM (inactive) | > 100 | > 100 µM (inactive) | > 100 µM (inactive) | > 100 µM (inactive) | > 100 µM (inactive) | > 100 µM (inactive) | > 100 µM (inactive) | > 100 µM (inactive) | > 100 µM (inactive) | > 100 µM (inactive) | > 100 µM (inactive) | > 100 µM (inactive) | > 100 µM (inactive) |  | 
CC(C)Oc1c(C2(c3ccccc3O)SCCCS2)c(=O)c1=O |  | > 100 µM (inactive) | > 100 µM (inactive) | > 100 µM (inactive) | > 100 µM (inactive) | > 100 | 55.5 µM (inactive) | > 100 µM (inactive) | 51.5 µM (inactive) | > 100 µM (inactive) |  | 93.3 µM (inactive) | > 100 µM (inactive) | > 100 µM (inactive) | 30.3 µM (inactive) |  | 75.9 µM (inactive) | > 100 µM (inactive) | > 100 µM (inactive) | 
COC1=CC(=O)c2c(O)c3c(c(O)c2C1=O)OC1(Oc2c(cc4cc(C)oc(=O)c4c2O)CC1O)C3O (stereo not given) | 29.4 µM (inactive) | 39.9 µM (inactive) | 21.7 µM (inactive) | 43.9 µM (inactive) | 91.8 µM (inactive) | 29 | 24.9 µM (inactive) | 33.7 µM (inactive) | 29.9 µM (inactive) | 20.8 µM (inactive) | 42.8 µM (inactive) | 33.8 µM (inactive) | 42.5 µM (inactive) | 48.4 µM (inactive) | 25.8 µM (inactive) | 28.9 µM (inactive) |  | 30.1 µM (inactive) | 44.5 µM (inactive) | > 100 µM (inactive)
CN(C(=O)Cc1ccccc1)n1cnn(CC(=O)OC(C)(C)C)c1=S | > 10 µM (inactive) | > 10 µM (inactive) | > 10 µM (inactive) | > 10 µM (inactive) | > 10 µM (inactive) | > 10 | > 10 µM (inactive) | > 10 µM (inactive) | > 10 µM (inactive) | > 10 µM (inactive) | > 10 µM (inactive) | > 10 µM (inactive) | > 10 µM (inactive) | > 10 µM (inactive) | > 10 µM (inactive) | > 10 µM (inactive) |  | > 10 µM (inactive) | > 10 µM (inactive) | > 10 µM (inactive)
CC12CC(C/C1=N/O)C(C)(C)C2 (stereo not given) |  | > 100 µM (inactive) | > 100 µM (inactive) | > 100 µM (inactive) | > 100 µM (inactive) |  | > 100 µM (inactive) | > 100 µM (inactive) | > 100 µM (inactive) | > 100 µM (inactive) | > 100 µM (inactive) | > 100 µM (inactive) | > 100 µM (inactive) | > 100 µM (inactive) | > 100 µM (inactive) | > 100 µM (inactive) | > 100 µM (inactive) |  | > 100 µM (inactive) | 
Cn1cco/c1=N/c1ccc(Cl)c(Cl)c1 | > 10 µM (inactive) | > 10 µM (inactive) | > 10 µM (inactive) | > 10 µM (inactive) | > 10 µM (inactive) | > 10 | > 10 µM (inactive) | > 10 µM (inactive) | > 10 µM (inactive) | > 10 µM (inactive) | > 10 µM (inactive) | > 10 µM (inactive) | > 10 µM (inactive) | > 10 µM (inactive) | > 10 µM (inactive) | > 10 µM (inactive) |  | > 10 µM (inactive) | > 10 µM (inactive) | > 10 µM (inactive)
O=C(NCC1Nc2ccncc2S(=O)(=O)N1)c1ccc(Br)cc1 (stereo not given) | 32.5 µM (inactive) | 30.4 µM (inactive) | > 100 µM (inactive) | 37 µM (inactive) | 32.2 µM (inactive) | 42.5 | > 100 µM (inactive) | 19.6 µM (inactive) | 40.6 µM (inactive) | 23.7 µM (inactive) | 33.2 µM (inactive) | 77.6 µM (inactive) | 19.3 µM (inactive) | > 100 µM (inactive) | 80.5 µM (inactive) | 51.9 µM (inactive) | > 100 µM (inactive) | 38.6 µM (inactive) |  | 
O=[N+]([O-])c1ccc(N/N=C2\C=CCCC2)c([N+](=O)[O-])c1 | > 100 µM (inactive) | > 100 µM (inactive) | > 100 µM (inactive) | > 100 µM (inactive) | 27.3 µM (inactive) | > 100 | > 100 µM (inactive) | > 100 µM (inactive) | > 100 µM (inactive) | > 100 µM (inactive) | > 100 µM (inactive) | > 100 µM (inactive) | > 100 µM (inactive) | > 100 µM (inactive) | 73.1 µM (inactive) |  |  | > 100 µM (inactive) |  | > 100 µM (inactive)
COc1cc(OCCN(C)C)c2[nH]c(C(=O)N3CC(CCl)c4c3cc(N)c3ccccc43)cc2c1 (stereo not given) | < 0.01 µM (active) | < 0.01 µM (active) | < 0.01 µM (active) | < 0.01 µM (active) | < 0.01 µM (active) | < 0.01 | < 0.01 µM (active) | < 0.01 µM (active) | < 0.01 µM (active) | < 0.01 µM (active) |  | < 0.01 µM (active) | < 0.01 µM (active) | < 0.01 µM (active) | < 0.01 µM (active) | < 0.01 µM (active) | < 0.01 µM (active) | < 0.01 µM (active) | < 0.01 µM (active) | 
COc1ccc2c(c1)C(=O)C1CCC(=O)N1C2c1ccc2c(c1)OCO2 (stereo not given) | 2.91 µM (inactive) | 15.2 µM (inactive) | 19.7 µM (inactive) | 4.83 µM (inactive) | 27.2 µM (inactive) | 12.2 | 20.3 µM (inactive) | 6.21 µM (inactive) | 8.87 µM (inactive) | 8.32 µM (inactive) | 3.36 µM (inactive) | 18.2 µM (inactive) | 12.9 µM (inactive) | 4.12 µM (inactive) | 16.5 µM (inactive) | 14.8 µM (inactive) |  | 9.59 µM (inactive) | 23 µM (inactive) | 4.56 µM (inactive)
CNC1C(O)C(OC2C(N)CC(N)C(OC3OC(CN)=CCC3N)C2O)OCC1(C)O (stereo not given) | > 100 µM (inactive) | > 100 µM (inactive) | > 100 µM (inactive) | > 100 µM (inactive) | > 100 µM (inactive) | > 100 | > 100 µM (inactive) | > 100 µM (inactive) | > 100 µM (inactive) | > 100 µM (inactive) | > 100 µM (inactive) | > 100 µM (inactive) | > 100 µM (inactive) | > 100 µM (inactive) | > 100 µM (inactive) | > 100 µM (inactive) |  | > 100 µM (inactive) | > 100 µM (inactive) | > 100 µM (inactive)
CC[S+]([O-])C(=O)N(O)c1ccc(Cl)cc1 (stereo not given) | 1.24 µM (inactive) | 19.4 µM (inactive) | 17.7 µM (inactive) | 20.4 µM (inactive) | 41.2 µM (inactive) | 23.8 | 26.7 µM (inactive) | 15 µM (inactive) | 15.6 µM (inactive) | 20 µM (inactive) | 16.2 µM (inactive) | > 100 µM (inactive) | 12.8 µM (inactive) |  |  | 43.3 µM (inactive) | 19.7 µM (inactive) | 11.7 µM (inactive) | 24.9 µM (inactive) | 
